Measured values as given in patent US20260232684A1, “FLT3 INHIBITORS AND METHODS OF USING THE SAME” (BIOVENTURES, LLC, priority 2023, published 2026).

Tests used:
[1] = test system: Ba/F3 cells transduced with mutagenized FLT3-ITD; assay: Saturation mutagenesis resistance selection (XL1-Red mutagenized FLT3-ITD); format: cell-based; settings: Ba/F3 cells with FLT3-ITD mutant isoforms (FIG. 10)
Text: FIG. 10. (A) Schematic depicting the saturation mutagenesis experimental design and the range of concentrations for compound 1 and compound 2 to select for resistant cells; (B) Population doublings of XL1-Red-mutagenized FLT3-ITD plasmid-transduced Ba/F3 cells in escalating concentrations of compound 1 and compound 2. Arrows indicate the timepoint of passage when a concentration of 0.1 million cells/mL was achieved; (C) Western blot analysis of lysates collected from transduced Ba/F3 cells cultured in (lane 1) vehicle; (lane 2) 120 nM of compound 1; (lane 3) 120n M of compound 2 (lane 4) Ba/F3 cells transduced with MSCVpuro; (lane M) size marker. […] Left table: identity of mutations detected at escalating concentrations of compounds 1 and 2. Right table: IC50 values of compounds 1 and 2 in Ba/F3 cells transformed to growth factor independence with FLT3-ITD and various mutant isoforms.
To determine if these compounds are potentially vulnerable to novel secondary mutations in FLT3-ITD, Ba/F3 cells were transduced with retrovirus generated using MSCVpuro/FLT3-ITD plasmid purified from the XL1-Red bacterial strain, which is deficient in DNA mismatch repair and introduces random point mutations. This assay has successfully identified point mutations for other FLT3 TKIs that were subsequently validated in samples obtained from patients with acquired resistance. […]

[2] = test system: HL60 cells (non-FLT3 driven); assay: Cell viability assay (CellTiter GLO), HL60; format: cell-based, human; settings: HL60, 48 hours
Experimental: (§1) FIG. 1. […] Cells were treated with inhibitor at increasing log doses (0.1 nM-10 μM) for 48 hours. Cell viability was analyzed through CellTiter GLO. […] Cells were exposed to increasing amounts of each drug for 2 hours. GAPDH1 represents loading control for phospho-ERK and ERK blots. GAPDH2 represents loading control for phosphor-STAT5, STAT5, phospho-S6 and S6. Each experiment was completed in triplicate. Representative images are shown.
(§2) MV-4-11 and parental Molm-14 cells were a gift from Dr. Scott Kogan (University of California, San Francisco). HL60 and K562 cell lines were obtained from Charles Sawyers. […] Stable Ba/F3 lines were generated by retroviral infection as previously described (5). All cell lines were tested to be mycoplasma free and human cell lines were authenticated through STR profiling completed at the University of California, Berkeley.
(§3) Each triplicate was either dosed with drug or DMSO vehicle control. Drug dosing was completed at log doses ranging from 0.1 nM-10 μM. Cell viability was assessed after 48 hours using CellTiter GLO (Promega). Viability values were normalized to the vehicle control average. Numerical IC50 values were calculated in GraphPad Prism 7.

[3] = test system: normal donor bone marrow mononuclear cells (BM-MNC); assay: Colony forming unit assay of normal bone marrow; settings: for impact on CFU-G counts/growth: equivalent multiples of Molm14 IC50, 14 days, three healthy donors
Experimental: FIG. 2. […] Normal bone marrow mononuclear cells (BM-MNC) were purchased from StemCell Technologies. 30,000 cells were plated in methylcellulose with increasing concentrations of either gilteritinib, 1, or 2. Blast forming unit-erythroid (BFU-E) and colony forming unit-granulocyte (CFU-G) were counted after 14 days incubation. Assay was completed in triplicate with three independent blood donors. Data shown is cumulated from all independent experiments. Error bars show one standard deviation and p values compared to control were calculated using a Student's t-test. NS indicates an insignificant p value, * indicates p value≤0.05, ** indicates p value≤0.01, *** indicates p value≤0.001, **** indicates p value≤0.0001
Bone marrow mononuclear cells (BM-MNC) of healthy donors (n=3) were purchased from StemCell Technologies (Vancouver, Canada). Cells were plated in a 35 mm dish in triplicate with methylcellulose medium at a concentration previously determined to form approximately 100 total colonies, usually 30,000 cells/mL and containing the appropriate amount of drug. Dishes were incubated for 14-15 days and visually assessed for erythrocyte burst-forming units and granulocyte-macrophage colony-forming units.

[4] = test system: NCI-60 cell line panel (no FLT3 mutation); assay: NCI-60 cell line panel; format: cell-based, human; settings: for cytotoxic activity in NCI-60 panel, in words: compound 1: 30 μM single dose, compound 2: 5-dose; for antiproliferative effects in NCI-60 panel, in words: higher concentrations
Experimental: FIG. 12. Activity of compound 1 against the NCI-60 cell line panel. Percentage growth of 1 in the 30 μM single dose experiment within the NCI-60 cell line panel. No cell line within the panel harbors a FLT3 mutation.
FIG. 13. Activity of compound 2 against the NCI-60 cell line panel. Growth inhibition curves of 2 in the 5-dose GIso experiment within the NCI-60 cell line panel. No cell line within the panel harbors a FLT3 mutation.
Myelosuppression represents a critical limitation of current FLT3 TKIs. To assess the selectivity profiles, KINOMEscan screening was performed for 1, 2, and gilteritinib at 20× the Molm14 IC50 concentration of each compound (FIG. 2A).

[5] = test system: K562 cells (non-FLT3 driven); assay: Cell viability assay (CellTiter GLO), K562; format: cell-based, human; settings: K562, 48 hours
Experimental: as §1, §2, §3

[6] = test system: Molm14 cells (FLT3-ITD-expressing); assay: Cell viability assay (CellTiter GLO), Molm14; format: cell-based, human; settings: Molm14, 48 hours
Experimental: as §1
FIG. 5. […] Cells were dosed with inhibitor at increasing log doses (0.1 nM-10 μM) for 48 hours. Cell viability was analyzed through CellTiter GLO.
as §2, §3

[7] = target: FLT3 D835Y (Homo sapiens, UniProt P36888, D835Y); assay: Enzyme kinetic analysis (5-FAM microfluidic assay), FLT3 D835Y; format: biochemical; settings: variable ATP and inhibitor concentrations
Experimental: FIG. 14. Enzyme kinetic analysis of compound 1 and 2 against FLT3 and FLT3 D835Y. The 5-FAM labeled microfluidic assay was utilized and all the activities were measured using Caliper EZ Reader II with a 12-sipper chip. In the presence of variable concentrations of compound 1 or 2, phosphorylation activities of FLT3 and FLT3 D835Y were measured at different level of ATP within certain time durations.
To further assess putative binding modes of compounds 1 and 2, enzyme kinetic analyses were performed.

| Structure (SMILES) | resistance conferred by secondary FLT3 mutations that confer relative resistance to other FLT3 TKIs [1] | activity in cell viability assay (IC50, FIG. 1A), in words [2] | impact on BFU-E counts/growth [3] | impact on CFU-G counts/growth [3] | cytotoxic activity in NCI-60 panel, in words [4] | antiproliferative effects in NCI-60 panel, in words [4] | activity in cell viability assay (IC50, FIG. 1A), in words [5] | activity in cell viability assay (IC50, FIG. 1A/5B), in words [6] | binding mode / inhibition model from enzyme kinetics [7] |
| --- | --- | --- | --- | --- | --- | --- | --- | --- | --- |
| CC(C)(C)c1cc(NC(=O)Cc2ccc(-c3cnc4cc(-c5cnn(CCN6CCOCC6)c5)ccc4n3)cc2)no1 [Compound 2, N-(5-(tert-butyl)isoxazol-3-yl)-2-(4-(6-(1-(2-morpholinoethyl)-1H-pyrazol-4-yl)quinoxalin-2-yl)phenyl) acetamide] | none of these were capable of conferring significant resistance | neither compound displayed any concerning toxicity | no significant impact on BFU-E growth at any concentration | less impact on CFU-G growth than gilteritinib | neither compound displayed any significant cytototoxic activity | antiproliferative effects were noted at higher concentrations | neither compound displayed any concerning toxicity | activity comparable to quizartinib and superior to gilteritinib | intermediate conformation between type 1 and type 2 |
| CN(C)CCNc1ncc(F)c(-c2cnc3cc(-c4cnn(C)c4)ccn23)n1 [Compound 1] | none of these were capable of conferring significant resistance | neither compound displayed any concerning toxicity | no significant impact on BFU-E growth at any concentration | less impact on CFU-G growth than gilteritinib | neither compound displayed any significant cytototoxic activity | antiproliferative effects were noted at higher concentrations | neither compound displayed any concerning toxicity | activity comparable to quizartinib and superior to gilteritinib | – |
